Laboratory results as given in paper PMC11513923, “Discovery of ZLC491 as a Potent, Selective, and Orally Bioavailable CDK12/13 PROTAC Degrader” (Journal of Medicinal Chemistry, 2024).

Tests used:
CDK12/13 = test: Immunoblotting of CDK12/13 in MDA-MB-231 cells (time course, negative control, series comparison); format: cell-based, human; conditions: 1 μM
Experimental: To further characterize the compound, we determined the half-degradation concentration (DC50) values of ZLC491 in MDA-MB-231 cells. […] We also treated MDA-MB-231 cells with 1 μM ZLC491 at various time points.
(A) Immunoblotting of CDK12 and CDK13 in MDA-MB-231 cells treated with increasing concentrations of ZLC491 for 15 h (left). Percent remaining CDK12 and CDK13 proteins were plotted for DC50 determination (right). Protein levels were quantified using ImageJ and normalized to corresponding α-tubulin, then plotted using Graphpad Prism 8.0. The data were representative of three independent experiments; (B) immunoblotting of CDK12 and CDK13 proteins in MDA-MB-231 cells treated with ZLC491 for various time points; immunoblotting of CDK12 and CDK13 in HCC38 (C) and MDA-MB-436 (D) cells treated with increasing concentrations of ZLC491 for 15 h. α-Tubulin was used as a loading control. TEXT PRINTED IN THE PICTURE: (A) ZLC491: MDA-MB-231: CDK12 DC50 = 0.032μM; MDA-MB-231: CDK13 DC50 = 0.028μM DOUBTS OF THE COPYIST ABOUT THIS PICTURE: ZLC491, CDK12 DC50: 0.032 read from small print, the digits 3 and 2 are uncertain / ZLC491, CDK13 DC50: 0.028 read from small print, the last digit may be 8, 6 or 3
Figure 4 ZLC491 induced CDK12/13 degradation in a CRBN- and proteasome-dependent fashion. […]

CDK12 and CDK13 = test: Pharmacodynamic study in MDA-MB-231 xenografted mouse model, Western blot of tumor tissues; format: in vivo; conditions: 100 and 200 mg/kg orally, 5 consecutive days, vs vehicle, MDA-MB-231 xenograft mice
Experimental: We further performed pharmacodynamic studies of ZLC491 in an MDA-MB-231 xenografted mouse model. ZLC491 was orally administrated at two doses of 100 and 200 mg/kg, respectively, for 5 consecutive days (Figure 7A). Tumor tissues were harvested on day 5 and subjected to Western blot analysis. […] Additionally, we conducted further histological analysis on the tumors following ZLC491 treatment.
Figure 7 ZLC491 depleted CDK12 and CDK13 proteins in vivo. (A) Study design of pharmacodynamics assessment on target engagement of ZLC491 in the MDA-MB-231 xenograft model; (B) immunoblotting of CDK12, CDK13, and α-tubulin in tissue lysate of MDA-MB-231 xenografts model after ZLC491 treatment; (C) protein levels were quantified using ImageJ and normalized to corresponding α-tubulin, then plotted using GraphPad Prism 8.0; (D) immunohistochemistry (IHC) analysis on the tumors by H&E staining and TUNEL assays; (E) TUNEL histology scores were analyzed and plotted by GraphPad Prism 8.0; (F) body weight change during the treatment.
The pharmacodynamics experiments were performed under an approved animal protocol by the Institutional Animal Care & Use Committee of the University of Michigan. Six- to eight-week-old CB17SCID female (Charles River Laboratory) mice were in a regular SPF housing room prior to cell injection. […]

CDK12 = CDK12 (Homo sapiens, UniProt Q9NYV4); test: CDK12 degradation in MDA-MB-231 cells by immunoblotting; format: cell-based; parameters: Immunoblotting of CDK12 and CDK13 in MDA-MB-231 cells treated with increasing concentrations of ZLC491 for 15 h; endogenous in cells; host or cells: MDA-MB-231
Outline: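 MDA-MB-231 cells treated with ZLC491 at increasing concentrations for 15 h (screening at 0.3 μM; time course at 1 μM); SDS lysates immunoblotted, band intensities normalised to α-tubulin. DC50 taken from percent remaining protein versus concentration; representative of three independent experiments.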

Chain of CDK12 (Q9NYV4 whole entry): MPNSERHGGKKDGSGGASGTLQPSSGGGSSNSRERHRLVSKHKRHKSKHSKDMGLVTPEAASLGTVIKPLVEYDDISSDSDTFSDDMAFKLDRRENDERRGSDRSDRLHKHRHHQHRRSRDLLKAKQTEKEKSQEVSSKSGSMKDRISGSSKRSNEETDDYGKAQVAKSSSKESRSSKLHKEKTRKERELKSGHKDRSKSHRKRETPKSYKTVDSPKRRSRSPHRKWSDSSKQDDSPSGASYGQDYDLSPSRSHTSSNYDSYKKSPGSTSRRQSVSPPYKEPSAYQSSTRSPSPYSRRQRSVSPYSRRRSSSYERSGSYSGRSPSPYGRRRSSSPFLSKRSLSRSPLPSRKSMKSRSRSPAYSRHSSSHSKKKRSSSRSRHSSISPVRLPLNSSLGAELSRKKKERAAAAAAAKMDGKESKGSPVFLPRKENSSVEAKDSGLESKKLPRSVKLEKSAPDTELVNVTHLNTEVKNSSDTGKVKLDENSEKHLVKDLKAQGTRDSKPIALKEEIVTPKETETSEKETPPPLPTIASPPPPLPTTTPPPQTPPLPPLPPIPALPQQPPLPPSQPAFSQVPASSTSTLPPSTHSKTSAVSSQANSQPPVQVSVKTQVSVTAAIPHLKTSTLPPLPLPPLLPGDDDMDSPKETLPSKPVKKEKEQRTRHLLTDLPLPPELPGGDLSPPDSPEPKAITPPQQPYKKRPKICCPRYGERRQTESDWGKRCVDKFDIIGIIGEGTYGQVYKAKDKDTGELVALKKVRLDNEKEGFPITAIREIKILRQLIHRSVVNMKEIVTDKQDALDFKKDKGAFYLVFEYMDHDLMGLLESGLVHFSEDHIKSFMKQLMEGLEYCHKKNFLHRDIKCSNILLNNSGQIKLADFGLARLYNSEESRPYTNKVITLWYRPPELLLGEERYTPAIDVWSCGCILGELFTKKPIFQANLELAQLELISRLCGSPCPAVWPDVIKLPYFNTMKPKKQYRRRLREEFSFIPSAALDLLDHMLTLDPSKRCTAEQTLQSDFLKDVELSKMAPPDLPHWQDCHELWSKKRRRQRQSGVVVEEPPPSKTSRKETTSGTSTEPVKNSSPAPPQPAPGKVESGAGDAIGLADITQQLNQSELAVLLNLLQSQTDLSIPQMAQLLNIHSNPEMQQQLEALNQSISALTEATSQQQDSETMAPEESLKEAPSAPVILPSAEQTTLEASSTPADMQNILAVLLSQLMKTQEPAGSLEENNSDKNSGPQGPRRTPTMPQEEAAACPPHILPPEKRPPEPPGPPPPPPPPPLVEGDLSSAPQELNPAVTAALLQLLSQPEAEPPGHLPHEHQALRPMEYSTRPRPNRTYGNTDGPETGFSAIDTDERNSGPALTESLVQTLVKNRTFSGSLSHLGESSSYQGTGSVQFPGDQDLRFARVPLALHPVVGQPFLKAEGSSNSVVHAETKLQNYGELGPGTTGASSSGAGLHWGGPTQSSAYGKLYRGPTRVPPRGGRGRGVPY
Chain of CDK12 (O75909 whole entry partner): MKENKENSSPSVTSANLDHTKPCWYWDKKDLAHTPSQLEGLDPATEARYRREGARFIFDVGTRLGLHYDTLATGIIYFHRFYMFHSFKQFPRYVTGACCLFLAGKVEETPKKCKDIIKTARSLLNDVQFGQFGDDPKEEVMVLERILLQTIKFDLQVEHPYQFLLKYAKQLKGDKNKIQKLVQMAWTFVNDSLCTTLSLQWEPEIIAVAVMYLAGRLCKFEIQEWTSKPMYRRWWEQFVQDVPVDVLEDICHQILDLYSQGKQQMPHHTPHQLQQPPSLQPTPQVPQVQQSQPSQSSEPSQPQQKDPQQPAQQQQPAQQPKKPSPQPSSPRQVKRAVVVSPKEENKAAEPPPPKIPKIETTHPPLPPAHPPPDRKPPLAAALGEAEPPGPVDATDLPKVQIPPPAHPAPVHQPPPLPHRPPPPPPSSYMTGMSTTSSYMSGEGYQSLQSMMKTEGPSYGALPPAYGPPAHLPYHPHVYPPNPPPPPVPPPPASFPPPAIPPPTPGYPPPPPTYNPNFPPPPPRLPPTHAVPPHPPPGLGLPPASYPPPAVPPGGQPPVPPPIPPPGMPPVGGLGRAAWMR

N#Cc1ccc(N[C@H]2CC[C@H](N(C(=O)NCc3ccccc3)c3ccc(N4CCN(C5CCN(c6cc7c(cc6F)C(=O)N(C6CCC(=O)NC6=O)C7=O)CC5)CC4)cc3)CC2)nc1 (some centres unmarked) [ZLC491, 3-Benzyl-1-((1r,4r)-4-((5-cyanopyridin-2-yl)amino)cyclohexyl)-1-(4-(4-(1-(2-(2,6-dioxopiperidin-3-yl)-6-fluoro-1,3-dioxoisoindolin-5-yl)piperidin-4-yl)piperazin-1-yl)phenyl)urea]
time at which significant reduction of CDK12/13 is observed (CDK12/13): ≤ 4 h
CDK12 and CDK13 proteins in tumor tissues (CDK12 and CDK13): significantly depleted
Protein Degradation (%DMSO control, 0.3 μM) CDK12 (CDK12; MDA-MB-231 cells, 0.3 μM, 15 h, immunoblotting, normalized against α-tubulin): 85%
DC50 (CDK12; MDA-MB-231 cells, 15 h): 0.032 µM
Degradation rates of CDK12 at 0.3 μM (CDK12; supplementary CSV, 0.3 μM): 85%
